Patent US7893252B2, “Selectively depolymerized galactomannan polysaccharide” (priority 2003, dated 2011)

Experiments:
[1] = tested on: rats; assay: Acute toxicology, single IV dose in rats; format: in vivo
Experimental: Acute toxicology studies of the galactomannan of the present invention were performed in mice, rats and dogs and subchronic toxicology studies were performed in rats and dogs. The following is a summary of the findings of these studies:
In rats (n=5/sex/group), single IV doses of 140 mg/kg (840 mg/m2) 5-FU, 72 mg/kg (432 mg/m2) galactomannan or 140/72 mg/kg of the combination produced no deaths in any of the groups.
Toxic changes in body weight, feed consumption, and hematology were less severe in the rats injected with the combination, versus those injected with 5-FU alone.

[2] = tested on: beagle dogs; assay: 28-day canine study (Example 9); format: in vivo; settings: galactomannan at 500 mg/m2, daily IV for four consecutive days
Experimental: In a 28-day canine study, single daily IV doses of saline, 6 mg/kg (120 mg/m2) 5-FU and ([…] (240 mg/m2) galactomannan or 4/2 mg/kg (80/40 mg/m2), 6/3.2 mg/kg (120/64 mg/m2) or 6/6 mg/kg (120/120 mg/m2) 5-FU/galactomannan were injected for four consecutive days to six groups of beagle dogs Mortality occurred in 13 of 48 dogs (five moribund sacrifices and eight found dead) between Study Days 2 and 5 (4/4 males on 5-FU; 3/4 males in the 4/2 mg/kg 5-FU/galactomannan group; 2/4 males and 1/4 females in the 6/3.2 and 6/6 mg/kg 5-FU/galactomannan groups, respectively).
Adverse effects in 5-FU groups included ataxia, prostration, vocalization, convulsions, tremors, hypersensitivity to touch, aggressive behavior (resulting in only three doses being given to the 6/3.2 5-FU/galactomanna group), emesis, salivation, soft stools and decreased red cell parameters and platelet counts. […] At the day 5 necropsy, treatment-related histological changes were largely limited to the 5-FU females. At day 29 necropsy, there were no remarkable changes in the survivors.

[3] = tested on: human colon tumor COLO 205; assay: Efficacy study in COLO 205 human colon tumor xenografts, q4d×3 (Example 3); settings: i.v. q4d×3, 5-FU 75 mg/kg/dose, GM 120 mg/kg/dose
Experimental: The both studies were conducted as follows.
5-FU alone was administered i.v. on the same q4d×3 treatment schedule at doses of 75 mg/kg/dose (225 mg/m2/dose). 5-FU was formulated in saline fresh on each day of treatment at a concentration of 3.75 mg/mL, at pH 9.2. […] Both individual compounds and their mixture were administered according to exact body weight with injection volume being 0.2 mL/10 g body weight.
There were a total of four groups of 10 animals each, s.c.-implanted with COLO 205 human colon tumor xenografts.

[4] = Biodistribution of 3H-galactomannan in tumor-bearing and non-tumor bearing mice (Example 6); format: in vivo
Experimental: The biodistribution of 3H-galactomannan was studied in tumor-bearing and non-tumor bearing mice. […] 3H-galactomannan elimination from plasma, kidneys, lungs and tumor in the various groups was rapid, an average of approximately 50% of the one-hour radioactivity was detected at six hours except in tumor-bearing mice, where the radioactivity in tumor samples from mice treated with 6 or 60 mg/kg of 3H-galactomannan with or without 5-FU averaged approximately 72% remaining after six hours. Elimination of 3H-galactomannan from the liver was more gradual than in other tissues, and on average, more than 50% of the radioactivity detected at one hour after injection was still present at 24 hours.
Male NCr-nu athymic nude mice (Charles Rivers Laboratories, Raleigh, N.C.) were acclimated and housed as described above. The first set of animals (a total of 18 mice) were non-tumored mice. The second set of 18 mice were tumored as follows. […]
Tritiation of GM from G. triacanthos was performed as follows. […] Total yield of the labeled GM was 3.8 mCi, specific radioactivity was 300 μCi/mg.
All 36 mice, divided into 18 groups, were given a single intravenous injection of cold or tritiated GM (either 6 or 60 mg/kg) or of a combination of GM (60 mg/kg, cold or tritiated) and 5-FU (114 mg/kg) on the same day. Non-labeled GM was formulated in saline, and tritiated GM was added to the solution so that each animal received 10 μCi of radioactivity. […] All dosing solutions (100 μL each) were counted in duplicate. […]
After weighing, livers were dissolved in 10 mL of Soluene 350 (Packard Instruments, Downers Grove, Ill.) and incubated first for 4 hrs at 50° C., and at room temperature, until tissues were solubilized. One millilter of the resulting solution was counted in a scintillation counter as a single sample. Based on tissue weight and the sample volume, the number of μCi of tritiated GM per gram of tissue was calculated.
Kidneys were treated in the same manner, but dissolved in 2 mL of Soluene. […] Plasma samples (50 μL each) were placed direct into Safety Solve and counted as a single sample. […]

[5] = tested on: mice; assay: Acute toxicology, single IV dose in mice; format: in vivo; settings: single IV dose; galactomannan (336 mg/m2), 112 mg/kg (336 mg/m2); combination 417/222 mg/kg (1251/666 mg/m2); n=5/group
Experimental: Acute toxicology studies of the galactomannan of the present invention were performed in mice, rats and dogs and subchronic toxicology studies were performed in rats and dogs. The following is a summary of the findings of these studies: […]

(((1,4)-linked β-D-mannopyranose)17-((1,6)-linked-β-D-galactopyranose)10)12) [GM]
deaths ([1]; 5-FU 140 mg/kg, galactomannan 72 mg/kg, combination 140/72 mg/kg, n=5/sex/group): no deaths | untoward effects ([1]; galactomannan 72 mg/kg (432 mg/m2) alone): no significant untoward effects | adverse effects [2]: no observed adverse effects | mean survival time [3]: 19.2 days | median to quadrupling of tumor volume [3]: 15.5 days | median tumor volume after 56 days of the study [3]: 1813 mm3 | tolerability [3]: well tolerated | tumor regression after 56 days of the study [3]: no tumor regression | treatment-related deaths ([3]; 10 mice per group, within two weeks): No deaths | increase of the amount of bound galactomannan for the 10-times higher dose ([4]; 60 mg/kg versus 6 mg/kg): 10 fold | saturation of binding ([4]; 6 to 60 mg/kg (18 to 180 mg/m2)): did not reach saturation | binding to liver, kidney, lung, tumor, and plasma ([4]; single i.v. injection, 6 or 60 mg/kg): freely binds | clinical signs of toxicity, death or decreased weight gain [5]: no clinical signs of toxicity, death or decreased weight gain
